Test results as given in patent publication US9717721B2, “Use of aryl-quinolin derivatives as inhibitors of vasculogenic mimicry” (TaiRx Inc., priority 2015, dated 2017).

Legend:
[1] = tested on: C8161 aggressive melanoma cells; test: VM network formation in three-dimensional MATRIGEL, C8161 cells; assay type: cell-based, human; details: for VM network formation: all tested concentrations
Procedure: (§1) Aggressive human melanoma (C8161 or SK-MEL28; 1×10^5) cells were seeded into a three-dimensional polymerized MATRIGEL™ (75 μl) for VM network analysis. C8161 or SK-MEL28 cells were treated for 24 h with 0.5, 1, 5, 10, 25 or 50 or 100 nM of TRX-818 at 5 or 24 h after cell attachment. Another set of melanoma cells were seeded onto a plastic dish and treated for the same amount of time before the cell viability of C8161 or SK-MEL28 cells was determined using the Guava Nexin Assay (Millipore, USA).
(§2) The VM network image was taken using a confocal laser scanning microscope equipped with an environmental, chamber to track the response of cancer cells to the test compound. The images were then digitized and subsequently analyzed using the Angiosys software. Four images per sample were analyzed to quantify the number of junctions and total tubule length of VM formation. Changes were presented in percentage relative to the vehicle control. Sterile deionized water (tissue-culture grade) was used as the vehicle control.
(§3) Aggressive human melanoma (C8161, 7.5×10^4) cells were seeded as disclosed in Example 1. C8161 cells were treated tor 4 h or 24 h with 0.3, 1 or 5 nM of TRX-818M1. Another set of melanoma cells were seeded onto a plastic dish and treated for the same amount of time before the cell viability of C8161 cells was determined.

SK-MEL28 cancer cells = test: VM network formation in three-dimensional MATRIGEL, SK-MEL28 cells; assay type: cell-based, human; details: 24 h treatment
Procedure: as §1, §2

[2] = tested on: Aggressive human melanoma (C8161 or SK-MEL28) cells; test: Quantification of number of junctions and total tubule length of VM formation (Angiosys); assay type: cell-based
Procedure: as §1, §2

[3] = tested on: Notch4 intracellular domain (Notch 4 ICD); test: qRT-PCR mRNA level of Notch4 ICD in C8161 cells; assay type: cell-based, human; details: 10 nM
Procedure: (§4) To determine whether TRX-818 reduced the VM network formation by altering the levels of the essential proteins for VM, its effect on Nodal, Notch4, VE-cadherin (CDHE5) or ephrin receptor A2 (Eph A2) expression was determined using qRT-PCR. 2×10^6 of aggressive human melanoma (C8161) cells were treated with 10 nM TRX-818 for 8, 24, 48, or 72 h. Sterile deionized water (tissue-culture grade) was used as vehicle.

Nodal = test: qRT-PCR mRNA level of Nodal in C8161 cells; assay type: cell-based, human; details: 10 nM
Procedure: as §4

VE-cadherin (CDH5) = test: qRT-PCR mRNA level of CDH5 in C8161 cells; assay type: cell-based, human; details: 10 nM
Procedure: as §4

Pro-Nodal = test: Immunoblotting of Pro-Nodal protein in C8161 cells; assay type: cell-based, human; details: 10 nM
Procedure: (§5) To further understand how TRX-818 alters the signaling pathways required for VM network formation, the protein levels of Pro-Nodal, Smad2, and phosphorylated Smad2 (P-Smad2) were determined using immunoblotting analysis. On the day of study, TRX-818 was prepared as described in Example 1, C8161 cells were untreated (control) or treated with 10 nM TRX-818 for 1, 4, 8, and 24 h. Protein expression of Nodal and total Smad2, and P-Smad2 was analyzed by immunoblotting analysis, 5×10^6 aggressive human melanoma (C8161) cells were seeded onto a plastic dish in the presence of 10 nM TRX-818, and total proteins were collected for analysis. To quantify the protein levels of Nodal and P-Smad2, 40 μg and 25 μg of total proteins were used for SDS-PAGE and immunoblotting, respectively. The protein level of β-actin was used for normalization to assure equal protein loading.

[4] = tested on: phosphorylated Smad2 (P-Smad2); test: Immunoblotting of phosphorylated Smad2 in C8161 cells; assay type: cell-based, human; details: 10 nM
Procedure: as §5

Smad2 = test: Immunoblotting of total Smad2 in C8161 cells; assay type: cell-based, human; details: 10 nM
Procedure: as §5

[5] = tested on: HCT-116 orthotopic human colon cancer xenograft; test: HCT-116 orthotopic human colon cancer xenograft model; assay type: in vivo, mice; details: for animals found dead prior to study termination: ten mice/group
Procedure: The inhibitory effect of TRX-818 on tumor growth and VM formation of HCT-116, a highly metastatic colon tumor, was examined in a HCT-116 orthotopic xenograft model. The effect of TRX-818 was evaluated on the formation of the vascular or vascular-like (vasculogenic mimicry, VM) network by immunohistochemistry staining (IHC) in orthotopic xenograft human colon cancer model inoculated with HCT116 colon cancer cell lines
Six groups were set in this study (ten mice/group). There were: Group 1, TRX-818 at 20 mg/kg given as oral administration; Group 2, TRX-818 at 50 mg/kg given as oral administration; Group 3, TRX-818 at 100 mg/kg given as oral administration; Group 4, TRX-818 at 20 mg/kg given as intravenous injection; Group 5, Irinotecan at 50 mg/kg given as intraperitoneal injection; Group 6, vehicle group. Dose schedule for G1, G2, G3 and G6 was QD×28 and for G4 was QOD×7. Body weights were monitored for safety evaluation. Tumor size and tumor weight were measured at the end of in-life study. The percentage of tumor growth inhibition (TGI %) was calculated at the termination of the study for anti-tumor effect evaluation. The average body weight of study mice on Day 1 was ˜20 gram and decreased to ˜17-19 gram at the end of study (Day 42)
At the end of 28-day dosing, CO2 anesthesia (1 min) followed by cervical dislocation was used for mice euthanasia in the study prior to tumors and lungs excision. First, a ventral midline incision was made and colon with primary tumor was excised and collected. The tumor collection was completed in 3 minutes after euthanasia. The tissues were rinsed with PBS to remove the blood before fixation.
The number of channels with CD31^+/red blood cell (RBC)^+ or CD31^−/RBC^+ were counted on the whole section of each sample in each group, and the number of vessels with CD31 positive or negative staining were counted based on 5 light fields (200×) under microscope. The vascular network represented by the CD31^+/RBC^+ staining whereas the VM network represented by CD31^−/RBC^+ staining, because the VM formation is independent of vascular endothelial cells. The scoring was conducted by blinded, objective observer.

[6] = tested on: SK-MEL-28 aggressive human melanoma cells; test: Loss of pre-formed VM network in SK-MEL-28 cells on MATRIGEL; assay type: cell-based; details: 100 nM
Procedure: TRX-818 M1 (i.e., compound No. 38) structurally similar compounds were tested for their effect on inhibition of vasculogenic mimicry. Aggressive human melanoma (SK-MEL-28 from ATCC®; 7.5×10^4 mL medium) cells were seeded onto a three-dimensional polymerized MATRIGEL™-coated 24-well plate. After 18 h of cell seeding, VM network was formed. The medium was then replaced with negative controls (untreated and DMSO treated controls), a positive control (100 nM of TRX-818M1) or 100 nM of each testing compound.

C8161 cells = test: Cell viability of C8161 cells (Guava Nexin Assay); assay type: cell-based; details: higher concentrations in the nM range
Procedure: as §1, §3

SMILES: COc1ccc2[nH]c(-c3cccc(F)c3)cc(=O)c2c1OP(=O)(O)O [TRX-818, 2-(3-fluorophenyl)-6-methoxy-4-oxo-1,4-dihydroquinolin-5-yl phosphate]
- concentration at which VM network formation was inhibited ([1]; 24 h treatment): 5 to 10 nM
- concentration at which VM network formation was inhibited (SK-MEL28 cancer cells): 5 to 10 nM
- No. of junctions, relative to vehicle control ([2]; 1 nM): −16.5%
- Total tubule length, relative to vehicle control ([2]; 1 nM): −15.1%
- No. of junctions, relative to vehicle control ([2]; 5 nM): −43.1%
- Total tubule length, relative to vehicle control ([2]; 5 nM): −23.3%
- maximal reduction of cell junctions ([2]; 5 nM): 43%
- No. of junctions, relative to vehicle control ([2]; 10 nM): −35.9%
- Total tubule length, relative to vehicle control ([2]; 10 nM): −26.0%
- No. of junctions, relative to vehicle control ([2]; 50 nM): −42.9%
- Total tubule length, relative to vehicle control ([2]; 50 nM): −47.5%
- maximal reduction of total tubule length ([2]; 50 nM): 48%
- decrease of Notch4 ICD mRNA level compared to control ([3]; 8 hours): 75%
- mrna remaining at 0.01 µM ([3]; Homo sapiens, 72 h, read-out: Notch4 ICD mRNA level remaining, % of control cells): 50%
- decrease of Nodal mRNA level compared to control (Nodal; 8 hours): 80%
- mrna remaining at 0.01 µM (Nodal; Homo sapiens, 72 h, read-out: Nodal mRNA level remaining, % of control cells): 70%
- decrease of CDH5 mRNA level compared to control (VE-cadherin (CDH5); 8 hours): 70%
- mrna remaining at 0.01 µM (VE-cadherin (CDH5); Homo sapiens, 72 hours, read-out: CDH5 mRNA level remaining, % of control cells): 50%
- decrease in Pro-Nodal protein level vs control cells (Pro-Nodal; 24 h): 63%
- decrease in Pro-Nodal protein level vs control cells (Pro-Nodal; four to eight hours): 28%
- decrease in Nodal protein expression (detected as Pro-Nodal) vs control cells (Pro-Nodal; one hour): 4%
- P-Smad2/Smad2 post-treatment protein level (relative to untreated control cells) ([4]; 1 hour): −33%
- P-Smad2 post-treatment protein level (relative to untreated control cells) ([4]; 1 hour): −4%
- P-Smad2/Smad2 post-treatment protein level (relative to untreated control cells) ([4]; 4 hours): −60%
- P-Smad2 post-treatment protein level (relative to untreated control cells) ([4]; 4 hours): −57%
- P-Smad2/Smad2 post-treatment protein level (relative to untreated control cells) ([4]; 8 hours): −40%
- P-Smad2 post-treatment protein level (relative to untreated control cells) ([4]; 8 hours): −39%
- P-Smad2/Smad2 post-treatment protein level (relative to untreated control cells) ([4]; 24 hours): −76%
- P-Smad2 post-treatment protein level (relative to untreated control cells) ([4]; 24 hours): −73%
- Smad2 post-treatment protein level (relative to untreated control cells) (Smad2; 1 hour): +43%
- Smad2 post-treatment protein level (relative to untreated control cells) (Smad2; 4 hours): +9%
- Smad2 post-treatment protein level (relative to untreated control cells) (Smad2; 8 hours): +3%
- Smad2 post-treatment protein level (relative to untreated control cells) (Smad2; 24 hours): +13%
- animals found dead prior to study termination ([5]; 20 mg/kg QOD group (intravenous)): two
- animals found dead prior to study termination ([5]; 50 mg/kg QD group): one
- reduction of tumor volume compared to the vehicle group ([5]; 50 mg/kg oral QD×28, Day 43 post tumor inoculation): 49%
- Average number of channels (CD31−/RBC+, VM) in the whole tumor section per group, Mean ± SEM ([5]; 100 mg/kg QD×28, p.o.): 0.8 ± 0.3
- MED (Minimum Effective Dose) ([5]; orally administered): 50 mg/kg

SMILES: O=c1cc(-c2cc(O)cc(F)c2)[nH]c2ccc(N3CCCC3)cc12 [Compound C6]
- loss of VM network compared to negative controls ([6]; 5 h post treatment): mild loss of VM network
- loss of VM network compared to negative controls ([6]; 24 h post treatment): marked loss of VM network

SMILES: O=c1cc(-c2cccc(OP(=O)(O)O)c2)[nH]c2ccc(N3CCCC3)cc12 [Compound 147, 3-(4-Oxo-6-(pyrrolidin-1-yl)-1,4-dihydroquinolin-2-yl)phenyl dihydrogen phosphate]
- loss of VM network compared to negative controls ([6]; 5 h post treatment): mild loss of VM network
- loss of VM network compared to negative controls ([6]; 24 h post treatment): marked loss of VM network

SMILES: CN(C)c1ccc2[nH]c(-c3cc(O)cc(F)c3)cc(=O)c2c1 [Compound C4]
- loss of VM network compared to negative controls ([6]; 5 h post treatment): mild loss of VM network
- loss of VM network compared to negative controls ([6]; 24 h post treatment): marked loss of VM network

SMILES: O=c1cc(-c2cccc(F)c2)[nH]c2cc3c(cc12)OCO3 [Compound A6]
- loss of VM network compared to negative controls ([6]; 5 h post treatment): mild loss of VM network
- loss of VM network compared to negative controls ([6]; 24 h post treatment): marked loss of VM network

SMILES: O=c1cc(-c2cccc(Cl)c2)[nH]c2ccc3c(c12)OCO3 [Compound B1]
- loss of VM network compared to negative controls ([6]; 5 h post treatment): mild loss of VM network
- loss of VM network compared to negative controls ([6]; 24 h post treatment): marked loss of VM network

SMILES: COc1ccc2[nH]c(-c3cccc(F)c3)cc(=O)c2c1O [TRX-818M1, 2-(3-Fluorophenyl)-5-hydroxy-6-methoxyquinolin-4-one]
- concentration effective as vascular disrupting agent [1]: ~0.3 nM
- VM network formation [1]: inhibited
- cell death (C8161 cells): induced cell death
- loss of VM network compared to negative controls ([6]; 5 h post treatment): mild loss of VM network
- loss of VM network compared to negative controls ([6]; 24 h post treatment): marked loss of VM network

SMILES: COc1ccc2[nH]c(-c3cccc(F)c3)cc(=O)c2c1OP(=O)(O)O [Compound 52, 2-(3-Fluorophenyl)-6-methoxy-4-oxo-1,4-dihydroquinolin-5-yl dihydrogen phosphate]
- loss of VM network compared to negative controls ([6]; 5 h post treatment): mild loss of VM network
- loss of VM network compared to negative controls ([6]; 24 h post treatment): marked loss of VM network

SMILES: O=c1cc(-c2ccccc2F)[nH]c2cc3c(cc12)OCO3 [CHM-2133, 2-(2-fluorophenyl)-6,7-methylenedioxyquinolin-4-one]
- concentration effective as vascular disrupting agent [1]: ~0.3 nM
- VM network formation [1]: inhibited

SMILES: COc1cccc(-c2cc(=O)c3c(O)c(OC)ccc3[nH]2)c1 [Compound B3]
- loss of VM network compared to negative controls ([6]; 5 h post treatment): mild loss of VM network
- loss of VM network compared to negative controls ([6]; 24 h post treatment): marked loss of VM network

SMILES: COc1cc2c(cc1O)N=C(c1ccccc1F)CC2=O [Compound 43, 2-(2-Fluorophenyl)-7-hydroxy-6-methoxyquinolin-4-one]
- loss of VM network compared to negative controls ([6]; 5 h post treatment): mild loss of VM network
- loss of VM network compared to negative controls ([6]; 24 h post treatment): marked loss of VM network

SMILES: CCc1c2c(nc3ccc(OC(=O)N4CCC(N5CCCCC5)CC4)cc13)-c1cc3c(c(=O)n1C2)COC(=O)[C@]3(O)CC [Irinotecan, reference compound]
- Average number of channels (CD31−/RBC+, VM) in the whole tumor section per group, Mean ± SEM ([5]; 50 mg/kg Q4D×3, i.p.): 1.1 ± 0.4
